We go through one molecule from US4775524A, “Method of treating hyperproliferative skin disease with substituted heterospiro pyridine derivatives” (Schering Corporation, priority 1986, dated 1988).

For the experiment, the system named is arachidonic acid-induced inflammatory reaction, mouse ear. The experiment can be described thus: Arachidonic Acid Mouse Ear Test. The experiment is classed as in vivo, Charles River, female, CD, (SD) BR mice. The following applies: topical, 30 minutes prior to AA challenge; for Tissue Wt.: 6 mm punch biopsy 1 hour after AA, mean ± standard error; for % Inhibition: biopsy 1 hour after AA. From the text: A compound of formula I may be utilized to treat hyperoroliferative skin disease in a mammal. As used herein, "hyperproliferative skin disease" means any condition a symptom of which is accelerated skin cell production, flaking, scales or papular lesions. Representative examples of hyperproliferative skin diseases include osoriasis, eczema, dandruff and the like. […] The Arachidonic Acid Mouse Ear Test is a recognized model for assessing the effectiveness of compounds for the treatment of hyperproliferative skin disease.
Charles River, female, CD, (SD) BR mice, 6 weeks old, are caged 8/group and allowed to acclimate 1-3 weeks prior to use.
Arachidonic acid (AA) is dissolved in reagent grade acetone (2 mg/0.01 ml) and stored at -20° C. for a maximum of 1 week prior to use. Inflammatory reactions are induced by applying 10 μl of AA to both surfaces of one ear (4 mg total).
Test drugs are dissolved in either reagent grade acetone or acueous ethanol (only if insoluble in acetone) at the same doses selected by Opas et al., Fed. Proc. 43, Abstract 2983, P. 1927 (1984) and Young et al., J. Invest. Dermatol. 82, pp. 367-371 (1984). These doses are employed to ensure maximum responses and to overcome any difference in topical absorption which could occur with any drug applied in an aqueous ethanol vehicle. The test drug is applied 30 minutes prior to challenge with AA.
The severity of the skin reaction is measured as a function of increased ear weight. A 6 mm punch biopsy is removed 1 hour after AA challenge and weighed to the nearest 0.1 mg. Mean ± standard error and all possible comparisons are made via Duncan's Multiple Range Statistic.

Turning to `O=C1c2cccnc2N(c2ccccc2)C(=O)C12CCCCO2` (centres unmarked) [1-Phenyl-3',4',5',6'-tetrahydro-spiro-[1,8-naphthyridine-3,2'-(2H)pyran]-2,4-dione], the Tissue Wt. runs as follows: (dose 0.125 mg/ear) 4.86 ± 0.39 mg; (dose 0.25 mg/ear) 4.97 ± 0.7 mg; (dose 0.5 mg/ear) 4.39 ± 0.62 mg; (dose 1.0 mg/ear) 2.27 ± 0.29 mg. For the same molecule, the “% Inhibition” value runs as follows: (dose 0.125 mg/ear) 30%; (dose 0.25 mg/ear) 28%; (dose 0.5 mg/ear) 37%; (dose 1.0 mg/ear) 67%.

In general, % Inhibition refers to the drop in the measured response relative to a control, in per cent.
